Results: patent US20230201232A1, “COMPOSITION FOR AMELIORATION, PREVENTION OR TREATMENT OF HAIR LOSS, COMPRISING CATECHIN 7-O-beta-D-APIOFURANOSIDE AS ACTIVE INGREDIENT” (ANPOLY INC., priority 2020, published 2023)

How the values were obtained:
[1] = system: production of dihydrotestosterone (DHT) from testosterone in dermal papilla cells (HFDPC); experiment: Dihydrotestosterone production inhibitory activity assay (DHT ELISA); type: cell-based, human; conditions: HFDPC treated with 20 nM testosterone; compound at 125 µg/ml, 150 µg/ml, 1100 µg/ml; FIG. 3
Procedure: (§1) HFDPC cells were inoculated in a papilla cell-specific medium (PromoCell, Heidelberg, Germany or Cell biologics Inc, IL, USA) recommended by the supplier, subcultured for 24 to 48 hours at 37° C. and 5% CO2 conditions, and used for experiments.
Quantitative analysis of dihydrotestosterone (DHT) was performed by immunochemical quantitative analysis using an ELISA kit. A DHT assay ELISA kit was purchased from Alpco (NH, USA) and used. The experiment using the kit was performed according to the instructions provided by the manufacturer, and the result was derived by converting the amount of antigen (pg/µg) per volume (ml) of cell lysate into a concentration unit.

[2] = system: Bax; experiment: Western blot, Bax protein expression in H2O2-treated dermal papilla cells; type: cell-based, human; conditions: HFDPC, 600 µM H2O2, pretreatment with compound at each concentration; FIG. 4
Procedure: as §1
(§2) After treating the dermal papilla cells (HFDPC) with H2O2 and the sample, the cells were collected at each time zone and the cells were lysed in a cell lysis buffer (RIPA buffer). After the sample was centrifuged at 13,000 g for about 10 to 15 minutes, only the supernatant was taken. The protein concentration of the supernatant was measured by a BCA protein assay kit (Bio-Rad, CA, USA) and then heated at 95° C. for 10 minutes. The prepared sample was electrophoresed on SDS-polyacrylamide gel, transferred to a polyvinylidenedifluoride membrane (PVDF, Bio-rad, CA, USA), blocked with 5% BSA, and reacted with the indicated specific antibody. Then, HRP-conjugated secondary antibody (Santacruz, CA, USA) was reacted with the sample and detected by ECL system (Bio-Rad, MO, USA). As primary antibodies against Bax-1, Bcl-2, PARP-1, and β-actin, Santacruz antibodies (CA, USA) were used.

[3] = system: Bcl-2; experiment: Western blot, Bcl-2 protein expression in H2O2-treated dermal papilla cells; type: cell-based, human; conditions: HFDPC, 600 µM H2O2, compound at each concentration; FIG. 4
Procedure: as §1, §2

[4] = system: PARP-1; experiment: Western blot, PARP-1 protein expression in H2O2-treated dermal papilla cells; type: cell-based, human; conditions: HFDPC, 600 µM H2O2, compound at each concentration; FIG. 4
Procedure: as §1, §2

[5] = system: IGF-1; experiment: ELISA, IGF-1 expression in H2O2-treated dermal papilla cells; type: cell-based, human; conditions: FIG. 5A
Procedure: as §1
(§3) An ELISA kit was purchased and used to perform immunochemical quantitative analysis related to hair growth promotion and hair loss inhibition. TGF-β and IGF-1 kits were purchased from R&D systems (CA, USA) and used. The test was conducted using each kit according to the supplier’s manual, and the result was derived by converting the amount (pg or µg) of antigen per volume (ml) of cell lysate into a concentration unit.

[6] = system: TGF-β1; experiment: ELISA, TGF-β1 expression in H2O2-treated dermal papilla cells; type: cell-based, human; conditions: FIG. 5B
Procedure: as §1, §3

[7] = system: dermal papilla cells (HFDPC); conditions: H2O2 at 600 µM

SMILES	inhibition of DHT production [1]	expression of Bax [2]	expression of Bcl-2 [3]	protein expression level of PARP-1 [4]	expression of IGF-1 [5]	expression of TGF-β1 [6]	apoptosis [7]
OC[C@@]1(O)COC(Oc2cc(O)c3c(c2)O[C@H](c2ccc(O)c(O)c2)[C@@H](O)C3)[C@@H]1O (stereo in doubt) [catechin 7-O-β-D-apiofuranoside]	effect of inhibiting DHT production was statistically significant in a concentration-dependent manner	expression of Bax was significantly reduced in a concentration-dependent manner	significantly increased the expression of Bcl-2 in a concentration-dependent manner	significantly inhibited the protein expression level of PARP-1 in a concentration-dependent manner	promote the expression of IGF conducive to hair growth in a concentration-dependent manner	inhibit the expression of TGF-β1 in a concentration-dependent manner	–
OO [Hydrogen peroxide (H2O2), Hydrogen peroxide]	–	–	–	–	–	–	50%
